One may read the IC50 as the midpoint of a concentration-inhibition curve.

A short description of data set [1]: in vitro. The format is cell-based. Here is the method: (§1) A cytotoxicity experiment was performed by a test method using a Cyto X™ cell viability assay kit (LPS SOLUTION). A 96-well cell culture plate was purchased from Corning, and mammalian cell lines were purchased from the American Type Culture Collection (ATCC). Also, the CytoX™ cell viability assay kit was purchased from LPS SOLUTION.
(§2) As an experimental method, stored frozen cells were thawed, cultured in a DMEM or RP 11640 medium supplemented with 10% FBS, and then sub-cultured at intervals of 2 to 3 days until a density of the cells reached 80 to 90%. For this experiment, the cells were detached by treating the cells with trypsin-EDTA, and then divided into wells of a 96-well plate so that the number of the cells amounted to 10,000 cells. Thereafter, the cells were cultured at 37° C. for 24 hours in a CO2 incubator. Each of the prepared peptides was diluted with DMSO to concentrations of 10, 1, 0.1, 0.01, and 0.001 mM, and then diluted at 1:100 by adding 1 μl of DMSO or each of the prepared peptides to each well. Then, the cells were cultured at 37° C. for 24 hours in a CO2 incubator. To measure cytotoxicity, 10 μl of each of the peptides prepared using the Cyto X™ cell viability assay kit (LPS SOLUTION) was added to each well. The cells were cultured at 37° C. for 1 to 4 hours in a CO2 incubator, and an optical density was measured at 450 nm using a microplate reader. Then, the measured optical density was calculated as a percentage of a value measured for DMSO, and a graph was plotted using GraphPad Prism 5. Then, an IC50 value was calculated. When each of the IC50 values of the four peptides in each cell line was greater than or equal to 10 μM, the peptides were judged to have no general cytotoxicity.

For data set [2] the following is noted: at a concentration of 200 μM or less; cited from earlier work.
Data set [3] concerns gram-positive and gram-negative bacteria. The conditions noted are these: cited from earlier work.
Data set [4] in a line: in vitro. The format is cell-based. The conditions noted are these: mouse. The protocol: as §1, §2
Data set [5] concerns CHO-K1 cell line. Briefly: in vitro. Format: cell-based. Here is the method: as §1, §2
For data set [6], the system named is Listeria innocua MC2 KCTC 3658, Staphylococcus aureus ATCC 6538, Pseudomonas aeruginosa ATCC 27853, Salmonella ATCC 19430, Escherichia coli KCTC 1682. Briefly: Minimal inhibitory concentration, standard broth microdilution method. Format: cell-based. The conditions noted are these: five strains, 37° C., 12 hours. The protocol: An antimicrobial assay was performed by measuring a minimal inhibitory concentration (MIC) value using a standard broth microdilution method. The antimicrobial activity of each of the peptides was measured using two gram-positive bacteria (Listeria innocua MC2 KCTC 3658 and Staphylococcus aureus ATCC 6538) and three gram-negative bacteria (Pseudomonas aeruginosa ATCC 27853, Salmonella ATCC 19430, and Escherichia coli KCTC 1682). 50 μl of each of the five bacterial strains were prepared, mixed with 5 ml of 3.7% BHI, and then cultured overnight under conditions of 37° C. and 240 rpm. Thereafter, 50 μl of each of the cultured bacterial strains was mixed with 5 ml of 3.7% BHI, and cultured for 2 hours under conditions of 37° C. and 240 rpm. Each of the cultured bacterial strains was diluted with a 0.037% BHI solution to a concentration of 1×10^8 CFU/ml.
A dissolved synthetic peptide was diluted twofold, stepwise, with BHIB in a 96 well-plate. […] After the incubation, a change in optical density at 600 nm was measured using Microplate Reader Multiskan FC (Thermo Scientific, Waltham, Mass., USA), and a range of the MIC was set as the lowest concentration of a peptide in which the growth of bacteria starts to be inhibited. […]
Background: Broth dilution looks for growth in wells or tubes with falling amounts of substance.

Ends that are not written are not given here.

For “NKVKEWIKYLKSLFS [YK3, NKVKE WIKYL KSLFS]”, the IC50 at 24 h worked out at 99.1 µM in data set [1] (African green monkey), 56.2 µM in data set [1] (Chinese hamster) and 94 µM in data set [1] (human).

With “NTVKETIKYLKSLFSHAFEVVKT (NTVKETIKYLKSLFSHAFEVVKT; LPcin-1 (23mer)) [LPcin-I, wild-type lactophoricin from cow milk, 23 amino acid residues, carboxyl terminal 113 to 135 region of PP3]”, in data set [2], the hemolytic action result was “does not have a hemolytic action”. Further, the “growth inhibition / antimicrobial functionality” value in data set [3] was “inhibits the growth of both gram-positive and gram-negative bacteria”.

As to NKVKEWWKWLKKL [YK11, NKVKE WWKWL KKL], the concentration for half-maximal inhibition (IC50) at 24 h is 96.6 µM in data set [4]; 83.7 µM in data set [1] (African green monkey); 86.8 µM in data set [1] (Chinese hamster); > 100 µM in data set [1] (human); > 100 µM in data set [1] (mouse). Also, the “cytotoxicity compared with YK3” value in data set [5] was “lower cytotoxicity than the YK3 peptide”.

With “NKVKEWIKYLKSKFK [YK8, NKVKE WIKYL KSKFK]”, the IC50 at 24 h was > 100 µM in data set [4]; > 100 µM in data set [1] (African green monkey); 71.9 µM in data set [1] (Chinese hamster); > 100 µM in data set [1] (human); > 100 µM in data set [1] (mouse). Further, in data set [5], the “cytotoxicity compared with YK3” value is “lower cytotoxicity than the YK3 peptide”.

With “H-NKVKEWIKYLKSLFK-OH [YK5, NKVKE WIKYL KSLFK]”, in data set [6], the “antibacterial activity (MIC experiment, FIG. 2)” value is on record as “effective antibacterial activity against the five strains when used at a low concentration”. Moreover, the IC50 at 24 h in data set [4] is > 100 µM; in data set [1] (African green monkey), > 100 µM; in data set [1] (Chinese hamster), 57 µM; in data set [1] (human) it was > 100 µM; in data set [1] (mouse), > 100 µM. Further, the “cytotoxicity compared with YK3” value in data set [5] was “lower cytotoxicity than the YK3 peptide”.

(Values after US10150795B2, “Peptide having antimicrobial activity against pathogens and antimicrobial peptide composition comprising the same” (Hankuk University of Foreign Studies Research & Business …, priority 2016, dated 2018).)
